Structures can show the parent of a compound that is named as a salt. Where two headings read alike, the source gives them in different places.
Legend:
dopamine transporter [1] = target: dopamine transporter (UniProt P23977); format: binding
Source text: (§1) Illustrative in vitro assays for binding are described in Boja et al Ann. NY Acad. Sci. 654:282-291 (1992), which is incorporated herein by reference in its entirety. […] Alternatively, the compounds may be analyzed by their ability to inhibit reuptake of a labelled neurotransmitter in a sample, in particular, in synaptosomes.

dopamine transporter [2] = format: binding; details: ratio of IC50 values, Table II
Source text: as §1

serotonin transporter = target: T1, serotonin transporter (Rattus norvegicus, UniProt P31652); test: Inhibition of [3H]paroxetine radioligand binding at the serotonin transporter
T1 construct: from tissue
Source text: as §1

[3] = target: norepinephrine transporter (UniProt Q9WTR4); test: Inhibition of [3H]nisoxetine radioligand binding at the norepinephrine transporter
Source text: as §1

[4] = read-out: IC50 DA [3H]-WIN 35,428, Table II
[5] = IC50 5-HT [3H]-paroxatine, Table II
[6] = read-out: IC50 NE [3H]-nisoxetine, Table II
[7] = read-out: DA IC50 for inhibition of radioligand binding, DA=[3H]WIN 35,428
[8] = 5-HT=[3H] paroxetine, read-out: 5-HT IC50 for inhibition of radioligand binding
[9] = Table II, read-out: IC50 5-HT [3H]-paroxatine (converted)
[10] = read-out: NEN IC50 for inhibition of radioligand binding, NEN=[3H] nisoxetine
[11] = 5-HT IC50 for inhibition of radioligand binding, 5-HT=[3H] paroxetine

T1 sequence (P31652 whole entry): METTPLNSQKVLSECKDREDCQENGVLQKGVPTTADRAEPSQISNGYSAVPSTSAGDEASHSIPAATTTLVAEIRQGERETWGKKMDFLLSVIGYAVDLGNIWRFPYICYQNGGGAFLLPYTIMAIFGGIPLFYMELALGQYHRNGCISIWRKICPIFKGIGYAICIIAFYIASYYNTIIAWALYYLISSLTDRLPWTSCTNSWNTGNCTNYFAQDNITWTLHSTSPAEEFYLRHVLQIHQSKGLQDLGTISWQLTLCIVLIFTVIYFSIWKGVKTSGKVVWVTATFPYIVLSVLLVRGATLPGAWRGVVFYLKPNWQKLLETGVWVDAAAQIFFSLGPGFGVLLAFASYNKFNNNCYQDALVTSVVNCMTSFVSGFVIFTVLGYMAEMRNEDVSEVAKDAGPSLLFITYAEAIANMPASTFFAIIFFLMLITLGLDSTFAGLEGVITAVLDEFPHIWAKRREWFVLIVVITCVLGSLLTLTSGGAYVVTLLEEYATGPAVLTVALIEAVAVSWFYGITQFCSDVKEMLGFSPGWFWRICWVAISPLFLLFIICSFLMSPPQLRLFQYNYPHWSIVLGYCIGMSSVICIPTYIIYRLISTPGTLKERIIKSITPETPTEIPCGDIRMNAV

Structure (SMILES)	IC50 (dopamine transporter [1]; [4]) [nM]	5-HT/DA Ratio (dopamine transporter [2])	NE/DA Ratio (dopamine transporter [2])	IC50 (serotonin transporter; [5]) [nM]	IC50 [3, 6] [nM]	IC50 (dopamine transporter [1]; [7]) [nM]	IC50 [3, 10] [nM]	IC50 (serotonin transporter; [11]) [nM]	other results
Cc1ccc([C@H]2C[C@@H]3CC[C@H]([C@H]2c2nn[nH]n2)N3C)cc1 [RTI-157, 3β-(4-Methylphenyl)-tropane-2β-tetrazole Hydrochloride]	1560	28	21	43600	32500	–	–	–	–
Cc1ccc(C2CC3CCC(C2c2cc(C)no2)N3C)cc1.Cl (stereo not drawn) [RTI-4229-171, 3β-(4-Methylphenyl)-2P-(3-methylisoxazol-5-yl)tropane Hydrochloride]	0.93	4105	273	–	254	0.93	254	–	IC50 (serotonin transporter; [8]): 3820 nM; IC50 (serotonin transporter; [9]): 3820 nM
Cc1ccc([C@H]2C[C@@H]3CC[C@H]([C@H]2c2cc(-c4ccccc4)no2)N3C)cc1 [RTI-4229-176, 3β-(4-Methylphenyl)-2β-(3-phenylisoxazol-5-yl)tropane Hydrochloride]	1.58	3234	251	5110	398	1.58	398	5110	–
CN1[C@H]2CC[C@@H]1[C@@H](c1cc(-c3ccccc3)no1)[C@@H](c1ccc(Cl)cc1)C2 [RTI-4229-177, 3β-(4-Chlorophenyl)-2β-(3-phenylisoxazol-5-yl)tropane Hydrochloride]	1.28 ± 0.18	1889	393	2420 ± 136	504 ± 29	1.28	504	2420	–
Cc1ccc([C@H]2C[C@@H]3CC[C@H]([C@H]2c2ncc(-c4ccccc4)o2)N3C)cc1 [RTI-4229-178, 3β-(4-Methylphenyl)-2β-(5-phenyl-oxazol-2-yl)-tropane Tartrate]	35.4	48	19	1700	677	35.4	677	1700	–
Cc1cc([C@H]2[C@@H](c3ccc(I)cc3)C[C@@H]3CC[C@H]2N3C)on1 [RTI-4229-180, 3β-(4-Iodophenyl)-2β-(3-methylisoxazol-5-yl)tropane Hydrochloride]	0.73	–	93	36.4	67.9	–	67.9	–	–
CN1[C@H]2CC[C@@H]1[C@@H](c1cc(-c3ccccc3)no1)[C@@H](c1ccc(I)cc1)C2 [RTI-4229-181, 3β-(4-Iodophenyl)-2β-(3-phenylisoxazol-5-yl)tropane Hydrochloride]	2.57	39	337	100	868	2.57	868	100	–
CN1[C@H]2CC[C@@H]1[C@@H](c1nnc(-c3ccccc3)o1)[C@@H](c1ccc(Cl)cc1)C2 [RTI-4229-188, 3β-(4-Chlorophenyl)-2β-(5-phenyl-1,3,4-oxadiazol-2-yl)-tropane Hydrochloride]	12.6 ± 1.03	262	73	3300 ± 196	929 ± 88	12.6	929	–	IC50 (serotonin transporter; [8]): 3300 nM
CN1[C@H]2CC[C@@H]1[C@@H](c1ncc(-c3ccccc3)o1)[C@@H](c1ccc(Cl)cc1)C2 [RTI-4229-189, 3β-(4-Chlorophenyl)-2β-(5-phenyl-oxazol-2-yl)-tropane Tartrate]	19.7 ± 1.98	57	25	–	496 ± 42	19.7	496	–	IC50 (serotonin transporter; [8]): 1120 nM; IC50 (serotonin transporter; [9]): 1120 ± 107 nM
Cc1ccc([C@H]2C[C@@H]3CC[C@H]([C@H]2c2nnc(C)o2)N3C)cc1 [RTI-4229-194, 3β-(4-Methylphenyl)-2β-(5-methyl-1,3,4-oxadiazol-2-yl)-tropane Hydrochloride]	4.45 ± 0.12	1098	57	4880 ± 155	253 ± 19	4.45	253	4880	–
Cc1ccc([C@H]2C[C@@H]3CC[C@H]([C@H]2c2nnc(-c4ccccc4)o2)N3C)cc1 [RTI-4229-195, 3β-(4-Methylphenyl)-2β-(5-phenyl-1,3,4-oxadiazol-2-yl)-tropane Hydrochloride]	47.5	491	28	23300	1310	47.5	1310	22300	–
Cc1ccc([C@H]2C[C@@H]3CC[C@H]([C@H]2c2nnc(-c4ccccc4)s2)N3C)cc1 [RTI-4229-199, 3β-(4-Methylphenyl)-2β-(5-phenyl-1,3,4-thiadiazol-2-yl)-tropane Hydrochloride]	35.9	1434	677	51500	24300	35.9	–	51500	–
C=Cc1ccc(C2CC3CCC(N3)C2C(=O)OC)cc1 (stereo not shown) [RTI-4229-309]	–	–	–	–	–	1.73	14.9	–	IC50 (serotonin transporter; [8]): 2.25 nM
COC(=O)[C@@H]1C2CCC(C[C@@H]1c1ccc3ccccc3c1)N2C (stereo partly shown) [RTI-4229-318]	–	–	–	–	–	0.51	21.1	0.8	–
COC(=O)C1C(c2ccc3ccccc3c2)CC2CCC1N2C (stereo not shown) [RTI-4229-319]	–	–	–	–	–	1.1	70.2	11.4	–
CCc1cc([C@@H]2C3CCC(C[C@@H]2c2ccc(Cl)cc2)N3C)on1 (stereo partly shown) [RTI-4229-334]	–	–	–	–	–	0.5	120	3090	–
CC(C)c1cc([C@@H]2C3CCC(C[C@@H]2c2ccc(Cl)cc2)N3C)on1 (stereo partly shown) [RTI-4229-335]	–	–	–	–	–	1.19	954	2320	–
Cc1ccc(-c2cc([C@@H]3C4CCC(C[C@@H]3c3ccc(Cl)cc3)N4C)on2)cc1 (stereo partly shown) [RTI-4229-336]	–	–	–	–	–	4.09	1710	5740	–
CCc1ccc(C2CC3CCC(N3)C2C(=O)OCc2ccccc2)cc1 (stereo not shown) [RTI-4229-338]	–	–	–	–	–	1100	3370	7.41	–
CN1C2CCC1[C@@H](c1cc(-c3ccc(Cl)cc3)no1)[C@@H](c1ccc(Cl)cc1)C2 (stereo partly shown) [RTI-4229-345]	–	–	–	–	–	6.42	5290	> 76000	–
COc1ccc(-c2cc([C@@H]3C4CCC(C[C@@H]3c3ccc(Cl)cc3)N4C)on2)cc1 (stereo partly shown) [RTI-4229-346]	–	–	–	–	–	1.57	762	5880	–
CN1C2CCC1[C@@H](c1cc(-c3ccc(F)cc3)no1)[C@@H](c1ccc(Cl)cc1)C2 (stereo partly shown) [RTI-4229-347]	–	–	–	–	–	1.86	918	7260	–
CN1C2CCC1C(c1ccccc1)C(c1ccccc1)C2 (stereo not shown) [RTI-4229-348]	–	–	–	–	–	28.2	2670	–	IC50 (serotonin transporter; [8]): 34700 nM
COC(=O)C1C(c2ccc(I)cc2)CC2CCC1N2C (stereo not shown) [RTI-4229-352]	–	–	–	–	–	2.86	52.4	–	IC50 (serotonin transporter; [8]): 64.9 nM
CCc1ccc(C2CC3CCC(N3)C2C(=O)OC)cc1I (stereo not shown) [RTI-4229-353]	–	–	–	–	–	331	148	–	IC50 (dopamine transporter [1]; read-out: IC50 DA [3H] WIN 35,428, Table III): 331 ± 17 nM; IC50 (serotonin transporter; [8]): 0.69 nM; potency at the serotonin site (serotonin transporter; in words): highly potent; selectivity relative to the dopamine and norepinephrine sites (serotonin transporter; in words): selective; IC50 (serotonin transporter; read-out: IC50 5-HT [3H] Paroxetine, Table III): 0.69 ± 0.07 nM; IC50 ([3]; read-out: IC50 NE [3H] Nisoxetine, Table III): 148 ± 9.2 nM
Cc1ccc(C2CC3CCC(C2c2ccccc2)N3C)cc1 (stereo not shown) [RTI-4229-422]	–	–	–	–	–	1.96	6090	1100	–
